Measurements: article PMC10950897, “VCF1 is a p97/VCP cofactor promoting recognition of ubiquitylated p97-UFD1-NPL4 substrates” (Nature Communications, 2024)

Assays:
[1] = system: p97 with poly-ubiquitylated mEos3.2; assay: In vitro p97 unfoldase assay (mEos3.2); format: biochemical, human; conditions: p97 100 nM hexamer, UFD1-NPL4 500 nM, VCF1 300 nM, 37 °C
Procedure: Di-ubiquitin-fused mEos3.2 fluorescent protein (diUb-mEos3.2) and ubiquitylation cascade proteins mUbe1, gpc78-ubc7 fusion and ubiquitin were recombinantly expressed in E. coli and purified as described previously. diUb-mEos3.2 substrate was enzymatically polyubiquitylated as described previously. […] The unfolding activity of p97 was monitored in vitro by measuring the decrease in diUb^n-mEos3.2 fluorescence. For this, diUb^n-mEos3.2 (35 nM), p97 (100 nM hexamer), UFD1-NPL4 (500 nM) and VCF1 (300 nM) were mixed as indicated in Eos assay buffer (50 mM HEPES, pH 7.5; 150 mM KCl; 2 mM MgCl2; 5% glycerol; 1 mM DTT) and pre-warmed to 37 °C for 5 min before ATP (2 mM) was added to start the reaction. Unfolding of red mEos3.2 fluorescence was measured every 15 s in a Varian Cary Eclipse spectrofluorometer (excitation: 500 nm; emission: 520 nm) and normalized to the first value after addition of ATP.

[2] = system: p97 with UFD1-NPL4, p47 or FAF1; assay: In vitro binding with p97 cofactors (GST, StrepTactin, p47, p97 or FLAG pulldown); parameters: species or system human
Procedure: (§1) All in vitro binding experiments were performed in EBC or RIPA buffer as indicated. Recombinant Biotin-tagged K48-linked poly-ubiquitin chains (2−7) and K48-linked poly-ubiquitin chains (2−16) were purchased from R&D Systems and Enzo Life Science, respectively. Recombinant proteins were incubated with Strep-Tactin Sepharose (IBA), Glutathione agarose (Gold Biotechnology) or […] Fab-trap agarose (ChromoTek) overnight on an end-over-end rotator at 4 °C, washed six times with EBC or RIPA buffer, and resuspended in 2×Laemmli sample buffer. For p97, VCF1 or p47 pulldowns, antibodies (0.5 µg/sample) were coupled to agarose beads, incubated with recombinant proteins or cell lysates and washed with the indicated buffer. To assess p97-UFD1-NPL4 binding to ubiquitylated proteins in total cell extracts, U2OS cells were lysed in EBC buffer supplemented with protease and phosphatase inhibitors, sonicated and incubated on ice for 10 min. Lysates were cleared by centrifugation for 10 min at 16,100 × g. Cell lysate (40 µg) was added to recombinant proteins in EBC buffer, incubated overnight on the rotator with […] Fab-trap agarose (ChromoTek), and beads were washed six times.

p97 (His6-p97 Y143A) = assay: SPR: binding to immobilized His6-p97 Y143A mutant; parameters: species or system human; conditions: full-length VCF1 up to 100 nM
Procedure: Surface Plasmon Resonance (SPR)
All SPR experiments were performed at 25 °C on a Biacore T200 instrument equipped with CM5 or CM7 sensor chips (Cytiva, Uppsala, Sweden). SPR running buffers and amine-coupling reagents (N-ethyl-N’-(3-dimethlyaminoproply)carbodiimide (EDC), N-hydroxysuccinimide (NHS), and ethanolamine HCl) were purchased from Cytiva. 1x PBS-P (11.9 mM NaH2PO4-Na2HPO4, pH 7.4; 137 mM NaCl; 2.7 mM KCl; 0.005% surfactant P20) supplemented with 0.5 mM TCEP was used as running buffer for the immobilization and the binding experiments with Strep-HA-VCF1 full-length proteins. For the VCF1 C-terminal peptide binding studies, 2% DMSO was additionally included in the running buffer. Eight solvent correction samples ranging from 1.5% DMSO to 2.8% DMSO prepared in either PBS-P, 0.5 mM TCEP or Tris-based buffer were used to correct buffer/DMSO mismatches. […] The dissociation rate of the p97-VCF1 complexes was monitored for 400 s. […] Binding experiments were measured in triplicates. […] The equilibrium dissociation contants, Kd, were determined by plotting the equilibrium responses levels (Req) against […] and fitting to a steady-state model.

[3] = system: p97-UFD1-NPL4 binding to K48-Ub2-7; assay: FLAG IP: p97-UFD1-NPL4 binding to K48-linked ubiquitin chains, purified proteins; format: biochemical, human; conditions: purified proteins
Procedure: as §1

## VCF1: human FAM104A isoform 1, 186 amino acids (UniProt Q969W3); recombinant Strep-HA-tagged
[1]
  effect on p97-UFD1-NPL4-mediated unfolding of mEos3.2: did not accelerate the already highly efficient p97-UFD1-NPL4-mediated unfolding of poly-ubiquitylated mEos3.2 in vitro
[2]; StrepTactin pulldown
  co-purification of UFD1-NPL4 with immobilized VCF1: dependent on the presence of p97 and the p97-binding proficiency of VCF1
[2]; VCF1:p47 ratio approx. 1:3
  VCF1 in p47 IP: little if any VCF1 is detectable in the p47 IP
[2]; VCF1:p47 ratio approx. 2:1
  VCF1 in p47 IP: VCF1 now becomes detectable in p47 IPs
[2]; VCF1:p47 ratio approx. 8:1
  competition with p47 for p97: more efficiently outcompetes p47 binding to p97
[2]; high/increasing concentrations
  displacement of p97-bound cofactors: displaced p47 and UFD1-NPL4 from p97 in vitro
[2]; moderate concentrations of VCF1
  simultaneous binding with UFD1-NPL4, p47 or FAF1 to p97: clearly permissive for the simultaneous binding
[2]; purified Strep-HA-VCF1, no p97
  p97-independent enrichment in UFD1 pulldowns: modest p97-independent enrichment
[2]; purified proteins, no p97
  direct interaction with UFD1-NPL4: did not directly interact with UFD1-NPL4
p97 (His6-p97 Y143A)
  binding to p97 Y143A (in words): did not show detectable binding affinity
p97 (His6-p97 Y143A); listed as Strep-HA-VCF1 WT
  binding to p97 Y143A (in words): no dose-dependent response was observed
[3]
  effect on UFD1-NPL4 association with p97: no discernible impact on UFD1-NPL4 association with p97
[3]; FLAG IP
  effect on p97-UFD1-NPL4 binding to K48 ubiquitin chains: strong stimulatory impact on p97-UFD1-NPL4 binding to K48-linked poly-ubiquitin chains in vitro
